Data as given in patent US7038049B2, “Haloanilino quinazolines and therapeutic use thereof” (Parker Hughes Institute, priority 1999, dated 2006).

Key:
[1] = system: NALM-6 human leukemia cells; assay: MTT cytotoxicity assay, NALM-6; assay type: cell-based; settings: Homo sapiens
Method: (§1) The cytotoxicity assay of various compounds against human tumor cell lines was performed using the MTT (3-[4,5-dimethylthiazol-2-yl]-2,5-diphenyl tetrazolium bromide) assay (Boehringer Mannheim Corp., Indianapolis, Ind.). Briefly, exponentially growing tumor cells were seeded into a 96-well plate at a density of 2.5×10^4 cells/well and incubated for 36 hours at 37° C. prior to drug exposure. On the day of treatment, culture medium was carefully aspirated from the wells and replaced with fresh medium containing the quinazoline compounds at concentrations ranging from 0.1 to 250 μM. Triplicate wells were used for each treatment.
(§2) Human cell lines were obtained from American Type Culture Collection (Rockville, Md.) and maintained as a continuous cell line in Dulbecco's modified Eagles' medium supplemented with 10% fetal bovine serum and antibiotics. Cells used in this study include human leukemia cells (NALM-6 and MOLT-3), human breast cancer cells ([…]), human prostate cancer cells (PC3), and human brain tumor cells (U373).
(§3) The cells were incubated with the various compounds for 24–36 hours at 37° C. in a humidified 5% CO2 atmosphere. To each well, 10 μl of MTT (0.5 mg/ml final concentration) was added and the plates were incubated at 37° C. for 4 hours to allow MTT to form formazan crystals by reacting with metabolically active cells. The formazan crystals were solubilized overnight at 37° C. in a solution containing 10% SDS in 0.01 M HCl. The absorbance of each well was measured in a microplate reader (Labsystems) at 540 nm and a reference wavelength of 690 nm. To translate the OD 540 values into the number of live cells in each well, the OD 540 values were compared to those on standard OD 540—versus—cell number curves generated for each cell line. The percent survival was calculated using the formula:
(§4) [formula] The IC50 values were calculated by non-linear regression analysis. Detection of Apoptosis

[2] = system: MOLT-3 human leukemia cells; assay: MTT cytotoxicity assay, MOLT-3; assay type: cell-based; settings: Homo sapiens
Method: as §1, §2, §3, §4

[3] = system: BT20 human breast cancer cells; assay: MTT cytotoxicity assay, BT20; assay type: cell-based; settings: Homo sapiens
Method: as §1, §2, §3, §4

[4] = system: U373 human brain tumor cells; assay: MTT cytotoxicity assay, U373; assay type: cell-based; settings: Homo sapiens, U373 MG, Table 5, fluoro-substituted, value ± spread
Method: as §1, §2, §3, §4

[5] = system: PC3 human prostate cancer cells; assay: MTT cytotoxicity assay, PC3; assay type: cell-based; settings: Table 5, fluoro-substituted, value ± spread
Method: as §1, §2, §3, §4

PC3 cells = assay: TUNEL apoptosis assay, PC3; assay type: cell-based, human; settings: 24 hours incubation, FIG. 3
Method: Exponentially growing cells were seeded in 6-well tissue culture plates at a density of 50×10^4 cells/well and cultured for 36 hours at 37° C. in a humidified 5% CO2 atmosphere. The supernatant culture medium was carefully aspirated and replaced with fresh medium containing unconjugated EGF or EGF-P154 at a concentration of 10, 25, or 50 μg/ml. After a 36 hour incubation at 37° C. in a humidified 5% CO2 incubator, the supernatants were carefully aspirated and the cells were treated for 1–2 minutes with 0.1% trypsin. The detached cells were collected into a 15 ml centrifuge tube, washed with medium and pelleted by centrifugation at 1000 rpm for 5 minutes. Cells were resuspended in 50 μl of PBS, transferred to poly-L-lysine coated coverslips and allowed to attach for 15 minutes. The cells were washed once with PBS and incubated with equilibration buffer for 10 minutes at room temperature. […]
The cells were incubated with HI-P353 or HI-P219 for 24 hours, fixed, permeabilized, and visualized for DNA degradation in a TUNEL assay using digoxigenin-UTP-labeling kit. In the color photographs, red fluorescence represents nuclei stained with propidium iodide. […]

[6] = NALM-6, Table 5, fluoro-substituted, value ± spread
[7] = MOLT-3, Table 5, fluoro-substituted, value ± spread
[8] = BT-20, Table 5, fluoro-substituted, value ± spread

SMILES: COc1cc2ncnc(Nc3c(F)c(F)c(Br)c(F)c3F)c2cc1OC [HI-P144, 4-(2′,3′,5′,6′-tetrafluoro-4′-bromophenyl)amino-6,7-dimethoxyquinazoline]
- IC50 [1, 6]: 28.1 ± 2.6 µM
- IC50 [2, 7]: 24.9 ± 3.7 µM
- IC50 [3, 8]: 63.4 ± 5.5 µM
- IC50 [4]: 49.5 ± 11.3 µM
- IC50 [5]: > 250 µM

SMILES: COc1cc2ncnc(Nc3ccc(Br)cc3F)c2cc1OC [HI-P214, 4-(2′-Fluoro-4′-bromophenyl)-amino-6,7-dimethoxyquinazoline]
- IC50 ([1]; NALM-6, Table 1, bromo substituted, 24–36 hours): > 250 µM
- IC50 [1, 6]: > 250 µM
- IC50 ([2]; MOLT-3, Table 1, bromo substituted, 24–36 hours): > 250 µM
- IC50 [2, 7]: > 250 µM
- IC50 ([3]; BT-20, Table 1, bromo substituted, 24–36 hours): > 250 µM
- IC50 [3, 8]: > 250 µM
- IC50 [4]: > 250 µM
- IC50 [5]: > 250 µM

SMILES: COc1cc2ncnc(Nc3cccc(C(F)(F)F)c3)c2cc1OC [HI-P218, 4-(3′-Trifluoromethylphenyl)-amino-6,7-dimethoxyquinazo-line]
- IC50 [1, 6]: 37 ± 5.8 µM
- IC50 [2, 7]: 33.2 ± 3.3 µM
- IC50 [3, 8]: 37.6 ± 5.2 µM
- IC50 [4]: 29.9 ± 7.3 µM
- IC50 [5]: 126 ± 5.8 µM

SMILES: COc1cc2ncnc(Nc3ccc(OC(F)(F)F)cc3)c2cc1OC [HI-P219, 4-(4′-Trifluoromethoxylphenyl)-amino-6,7-dimethoxyqui-nazoline]
- IC50 [1, 6]: 22.3 ± 3 µM
- IC50 [2, 7]: 41.3 ± 4.4 µM
- IC50 [3, 8]: 44.2 ± 10.9 µM
- IC50 [4]: 83.6 ± 6.5 µM
- IC50 [5]: 58.3 ± 3.2 µM
- Induction of apoptosis (TUNEL) (PC3 cells): Apoptosis was induced

SMILES: COc1cc2ncnc(Nc3ccc(F)cc3)c2cc1OC [HI-P221, 4-(4′-Fluorophenyl)-amino-6,7-dimethoxyquinazoline]
- IC50 [1, 6]: 100 ± 4.8 µM
- IC50 [2, 7]: 98.7 ± 3.8 µM
- IC50 [3, 8]: 30.7 ± 7.9 µM
- IC50 [4]: 28.8 ± 12.7 µM
- IC50 [5]: > 250 µM

SMILES: COc1cc2ncnc(Nc3ccc(C(F)(F)F)cc3)c2cc1OC [HI-P223, 4-(4′-Trifluoromethylphenyl)-amino-6,7-dimethoxyquinazoline]
- IC50 [1, 6]: 39.5 ± 8 µM
- IC50 [2, 7]: 40.8 ± 15.1 µM
- IC50 [3, 8]: 27.6 ± 8.6 µM
- IC50 [4]: 32.1 ± 3.9 µM
- IC50 [5]: > 250 µM

SMILES: COc1cc2ncnc(Nc3cccc(F)c3)c2cc1OC [HI-P224, 4-(3′-fluorophenyl)amino-6,7-dimethoxyquinazoline]
- IC50 [1, 6]: 20.2 ± 8.1 µM
- IC50 [2, 7]: 23.3 ± 7.7 µM
- IC50 [3, 8]: 58.3 ± 5.8 µM
- IC50 [4]: 22.4 ± 5.9 µM
- IC50 [5]: > 250 µM

SMILES: COc1cc2ncnc(Nc3ccccc3C(F)(F)F)c2cc1OC [HI-P228, 4-(2′-Trifluoromethylphenyl)-amino-6,7-dimethoxyquinazoline]
- IC50 [1, 6]: 57.3 ± 24.8 µM
- IC50 [2, 7]: 237 ± 4.8 µM
- IC50 [3, 8]: > 250 µM
- IC50 [4]: > 250 µM
- IC50 [5]: > 250 µM

SMILES: COc1cc2ncnc(Nc3ccc(S(=O)(=O)F)cc3)c2cc1OC [HI-P232, 4-[4′-benzenesulfanilylfluoride]-amino-6,7-dimethoxyquinazoline]
- IC50 [1, 6]: 41.4 ± 6.9 µM
- IC50 [2, 7]: 43.6 ± 2.3 µM
- IC50 [3, 8]: 70.5 ± 8.2 µM
- IC50 [4]: 208 ± 18.1 µM
- IC50 [5]: 88.9 ± 17.2 µM

SMILES: COc1cc2ncnc(Nc3ccccc3F)c2cc1OC [HI-P264, 4-(2′-Fluorophenyl)-amino-6,7-dimethoxyquinazoline]
- IC50 [1, 6]: 47 ± 19.5 µM
- IC50 [2, 7]: 70.9 ± 17.3 µM
- IC50 [3, 8]: 33.3 ± 7.5 µM
- IC50 [4]: 53.3 ± 6.7 µM
- IC50 [5]: > 250 µM

SMILES: COc1cc2ncnc(Nc3ccc(C(c4ccc(N)cc4)(C(F)(F)F)C(F)(F)F)cc3)c2cc1OC [HI-P352, 4-{4′-[2″-(4′′′-Aminophenyl)-hexafluoropropyl]phenyl}amino-6,7-dimethoxyquinazoline]
- IC50 [1, 6]: 7.1 ± 1.8 µM
- IC50 [2, 7]: 21.8 ± 1.7 µM
- IC50 [3, 8]: 50.3 ± 14.8 µM
- IC50 [4]: 65.5 ± 11.2 µM
- IC50 [5]: 72.6 ± 2.5 µM

SMILES: COc1cc2ncnc(Nc3ccc(C(c4cccc(N)c4)(C(F)(F)F)C(F)(F)F)cc3)c2cc1OC [HI-P353]
- IC50 [1, 6]: 6.1 ± 1.4 µM
- IC50 [2, 7]: 17.4 ± 1.5 µM
- IC50 [3, 8]: 14.1 ± 3.3 µM
- IC50 [4]: 14.5 ± 7.6 µM
- IC50 [5]: 64.9 ± 11.9 µM

SMILES: COc1cc2ncnc(Nc3cccc(OC(F)(F)F)c3)c2cc1OC [HI-P364, 4-(3′-Trifluoromethoxylphenyl)-amino-6,7-dimethoxyquinazoline]
- IC50 [1, 6]: 7.9 ± 1.9 µM
- IC50 [2, 7]: 25.3 ± 9.1 µM
- IC50 [3, 8]: 40.1 ± 8.6 µM
- IC50 [4]: 27.7 ± 1.2 µM
- IC50 [5]: > 250 µM

SMILES: COc1cc2ncnc(Nc3ccccc3OC(F)(F)F)c2cc1OC [HI-P365, 4-(2′-Trifluoromethoxylphenyl)-amino-6,7-dimethoxyquinazoline]
- IC50 [1, 6]: 86.5 ± 3.4 µM
- IC50 [2, 7]: 111 ± 7.5 µM
- IC50 [3, 8]: > 250 µM
- IC50 [4]: > 250 µM
- IC50 [5]: > 250 µM

SMILES: COc1cc2ncnc(Nc3cc(C(F)(F)F)cc(C(F)(F)F)c3)c2cc1OC [HI-P366, 4-(3′,5′-Ditrifluoromethylphenyl)-amno-6,7-dimethoxyquinazoline]
- IC50 [1, 6]: 52.8 ± 14 µM
- IC50 [2, 7]: 137 ± 10.3 µM
- IC50 [3, 8]: 61.7 ± 12.1 µM
- IC50 [4]: 55.5 ± 13.2 µM
- IC50 [5]: > 250 µM

SMILES: COc1cc2ncnc(Nc3ccc(O)c(F)c3)c2cc1OC [HI-P369, 4-(4′-Hydroxyl-3′-fluorophenyl)-amino-6,7-dimethoxyquinazoline]
- IC50 [1, 6]: > 250 µM
- IC50 [2, 7]: > 250 µM
- IC50 [3, 8]: > 250 µM
- IC50 [4]: > 250 µM
- IC50 [5]: > 250 µM

SMILES: COc1cc2ncnc(Nc3cc(F)c(O)c(F)c3)c2cc1OC [HI-P408, 4-(4′-Hydroxyl-3′,5′-difluorophenyl)-amino6,7-dimethoxy-quinazoline]
- IC50 [1, 6]: 116 ± 17.8 µM
- IC50 [2, 7]: 228 ± 20.8 µM
- IC50 [3, 8]: > 250 µM
- IC50 [4]: > 250 µM
- IC50 [5]: > 250 µM
